From patent publication EP1367044B1, “Calixarene-derivatives having anti-viral activity” (Aids Care Pharma Limited, priority 2002, dated 2003)

Assays:
HIV = details: drug used on its own, patients; cited from earlier work
[1] = human, in vivo; cited from earlier work
wild-type HIV-1(111a) = type: cell-based; details: CEM cells, 4 days incubation at 37°C, syncytium formation
Experimental: The results shown in Table 1 for test 2 were obtained by testing cell cultures in accordance with the following procedure.
CEM cells were suspended at approximately 250,000 cells per milliliter of culture medium and infected with wild-type HIV-1(111a) at approximately 100 times the 50% cell culture infective dose (CCID50) per milliliter. Then 100µl of the infected cell suspensions were added to 200 µl microtiter plate wells containing 100 µl of an appropriate dilution of the test compounds. After 4 days incubation at 37°C the cell cultures were microscopically examined for syncytium formation.

gp120/CD4 binding = gp120/CD4 binding (UniProt P01730+P03375); test: Test 1: inhibition of gp120/CD4 binding, recombinant proteins in an immunoassay format

Molecule | REDUCTION IN VIRAL LOAD (HIV) | SIDE EFFECTS [1] | other results
Nc1nc(NC2CC2)c2ncn([C@H]3C=C[C@@H](CO)C3)c2n1 [Abacavir] | 50-90% | – | –
CC(C)Nc1cccnc1N1CCN(C(=O)c2cc3cc(NS(C)(=O)=O)ccc3[nH]2)CC1 [Delaviridine] | 50-90% | – | –
O=c1[nH]cnc2c1ncn2[C@H]1CC[C@@H](CO)O1 [Didanosine (ddl), Didanosine] | 50-90% | – | –
O=C1Nc2ccc(Cl)cc2[C@@](C#CC2CC2)(C(F)(F)F)O1 [Efavirenz] | 50-90% | – | –
Nc1ccn([C@@H]2CS[C@H](CO)O2)c(=O)n1 [Lamivudine (3TC), Lamivudine] | – | gastrointestinal disturbances, hair loss, myelosuppression, exacerbation of peripheral neuropathy | –
Cc1c(O)cccc1C(=O)N[C@@H](CSc1ccccc1)[C@H](O)CN1C[C@H]2CCCC[C@H]2C[C@H]1C(=O)NC(C)(C)C [Nelfinavir (Viracept), Nelfinavir] | – | diarrohea, nausea & vomiting | –
Cc1ccnc2c1NC(=O)c1cccnc1N2C1CC1 [Nevirapine] | 50-90% | – | –
CC(C)c1nc(CN(C)C(=O)N[C@H](C(=O)N[C@@H](Cc2ccccc2)C[C@H](O)[C@H](Cc2ccccc2)NC(=O)OCc2cncs2)C(C)C)cs1 [Ritonavir] | – | diarrhoea nausea, vomiting, hepatitis, headache | –
CC(C)(C)NC(=O)[C@@H]1C[C@@H]2CCCC[C@@H]2CN1C[C@@H](O)[C@H](Cc1ccccc1)NC(=O)[C@H](CC(N)=O)NC(=O)c1ccc2ccccc2n1 [Saquinavir] | – | loose stools, nausea, headache | –
Cc1cn([C@H]2C=C[C@@H](CO)O2)c(=O)[nH]c1=O [Stavudine (d4T), Stavudine] | 50-90% | – | –
Nc1ccn([C@H]2CC[C@@H](CO)O2)c(=O)n1 [Zalcitabine (ddc), Zalcitabine] | 50-90% | – | –
Cc1cn([C@H]2C[C@H](N=[N+]=[N-])[C@@H](CO)O2)c(=O)[nH]c1=O [Zidovudine (AZT), Zidovudine] | 50-90% | myelosupression, myopathy, nausea, headache, anaemia | –
dodecapotassium acetate of p-bromopyrogallol P-F-phenyl tetramer [AC-1 (1151c)] | – | – | Test 2 EC50 (wild-type HIV-1(111a)): 4 µg/mL; % inhibition of gp120/CD4 binding (gp120/CD4 binding; Conc um 0.39): 48%; % inhibition of gp120/CD4 binding (gp120/CD4 binding; Conc um 0.78): 55%; % inhibition of gp120/CD4 binding (gp120/CD4 binding; Conc um 1.56): 62%; % inhibition of gp120/CD4 binding (gp120/CD4 binding; Conc um 3.125): 70%; % inhibition of gp120/CD4 binding (gp120/CD4 binding; Conc um 6.25): 82%; % inhibition of gp120/CD4 binding (gp120/CD4 binding; Conc um 12.5): 86%; % inhibition of gp120/CD4 binding (gp120/CD4 binding; Conc um 25): 91%; % inhibition of gp120/CD4 binding (gp120/CD4 binding; Conc um 50): 93%; % inhibition of gp120/CD4 binding (gp120/CD4 binding; Conc um 100): 96%; EC50 (gp120/CD4 binding; read-out: Test 1 EC50, concentration which reduces gp120 interaction with CD4 by 50%): 500 to 1000 nM
